From PMC4770093, “The role of kinetic context in apparent biased agonism at GPCRs” (Nature Communications, 2016)
Where “and” joins values, the source holds several entries; their conditions need not be identical. Equal values may be shown once.

Columns and labels:
[1] = target: SNAP-tagged human dopamine D2L (Homo sapiens, UniProt P14416); test: Tag-lite PPHT-red competition kinetic binding (HTRF); conditions: PPHT-red tracer, Tag-lite
Description: To terbium label the SNAP-CHO-D2L cells, cell culture medium was removed from the T175 cm^2 flasks containing confluent adherent SNAP-CHO-D2L cells. Twelve millilitres of Tag-lite labelling medium containing 100 nM of SNAP-Lumi4-Tb was added to the flask and incubated for 1 h at 37 °C under 5% CO2. Cells were then washed 2 × in 15 ml PBS (GIBCO, Invitrogen, Paisley, UK) to remove the excess of SNAP-Lumi4-Tb and detached using 5 ml of enzyme-free Hank's-based cell dissociation buffer (GIBCO, Invitrogen, Paisley, UK) and collected in a vial containing 5 ml of DMEM/Nutrient F-12 Ham, 2 mM glutamine supplemented 10% FCS. Cells were pelleted by centrifugation (5 min at 1,500 r.p.m.) and the pellets were frozen to −80 °C before preparation of membranes.
All subsequent steps described were conducted at 4 °C, to avoid receptor degradation. Twenty millilitres of wash buffer (10 mM HEPES and 10 mM EDTA pH 7.4) was added to the pellet of terbium-labelled cells (equivalent to 1 × t175 cm^2). […] The supernatant was discarded and the pellet was homogenized and centrifuged as described above in wash buffer. The final pellet was suspended in ice-cold 10 mM HEPES and 0.1 mM EDTA pH 7.4, at a concentration of 5–10 mg m^−1. Protein concentration was determined by the bicinchoninic acid assay using BSA as a standard and aliquots maintained at −80 °C until required. Before their use, the frozen membranes were thawed and the membranes suspended in the assay buffer at a membrane concentration of 0.1 mg m^−1.
GppNHp was included to remove the G protein-coupled population of receptors that can result in two binding sites in membrane preparations, because the Motulsky–Mahan model is only appropriate for ligands competing at a single site. […] Both fluorescent ligands and unlabelled compounds were diluted in the binding assay buffer.
Kinetics acquisitions at intervals of 20 s were recorded using the standard settings of the reader for HTRF measurements. […] Specific binding was determined by subtracting the nonspecific HTRF ratio from the total HTRF ratio.
To accurately determine association rate (kon) and dissociation rate (koff) values, the observed rate of association (kob) was calculated using at least four different concentrations of PPHT-red. The appropriate concentration of PPHT-red was incubated in a 384-well Optiplate with human SNAP-D2LR-CHO cell membranes (2 μg per well) in assay binding buffer at 37 °C (final assay volume, 40 μl). The degree of PPHT-red bound to the receptor was assessed at multiple time points by HTRF detection, to allow construction of association kinetic curves. The resulting data were globally fitted to the association kinetic model (equation (8)) to derive a single best-fit estimate for kon and koff as described under ‘Data analysis'.
On the same 384-well Optiplate plate, the kinetic parameters of unlabelled ligand were assessed using a competition kinetic binding assay. This approach involves the simultaneous addition of both fluorescent ligand and competitor to receptor preparation so that at t=0 all receptors are unoccupied. […] The degree of PPHT-red bound to the receptor was assessed at multiple time points by HTRF detection. Nonspecific binding was determined as the amount of HTRF signal detected in the presence of spiperone (1 μM) and was subtracted from each time point. Each time point was conducted on the same 384-well plate incubated at 37 °C with shaking (100 r.p.m.) after every cycle.
Data were globally fitted using equation (7), to simultaneously calculate kon and koff.

[2] = target: T1, D2LR (Homo sapiens, UniProt P14416); test: β-Arrestin-2 recruitment (BRET); format: cell-based; parameters: expressed in transfected cells; conditions: 5 minute timepoint
Description: β-Arrestin-2 recruitment. […] To assess β-arrestin-2 recruitment to the D2LR, the cells were transfected with 1 μg Rluc8-tagged D2LR, 4 μg YFP–β-arrestin-2 and 2 μg GRK2. […] The cells were incubated with Coelenterazine (Promega) at a final concentration of 5 μM for 5 min, followed by stimulation with the agonists for an additional 5 min before the BRET readings were captured.

[3] = target: T1, D2LR; test: GαoB G protein activation (BRET); format: cell-based; parameters: expressed in transfected cells; conditions: for Emax Gao: relative to the maximal response of ropinirole;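 on all read-outs here: Flp-In-CHO cells stably expressing D2LR, transiently transfected, agonist-stimulated in HBSS at 37 °C, net BRET read after coelenterazine, vehicle control subtracted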
[4] = target: T1, D2LR; test: Inhibition of forskolin-induced cAMP production (BRET CAMYEL biosensor); conditions: for Emax cAMP: relative to the maximal response of ropinirole; for Inhibition of cAMP production measured using a CAMYEL BRET biosensor, Net BRET: single experiments n = 1, 2, 3
Description: Flp-In-CHO cells stably expressing the D2LR were seeded at a density of 2,000,000 cells per 10-cm dish and were transfected the following day using polyethylenimine as the transfection reagent. The cells were transfected with 3 μg CAMYEL, to allow the detection of cAMP levels within the cells. Twenty-four hours after transfection, the cells were plated into 96-well CulturPlates (PerkinElmer) and grown overnight. The cells were equilibrated in Hank's balanced salt solution at 37 °C (or 25 °C when indicated) before starting the experiment. The cells were co-stimulated with the agonists and 10 μM forskolin for the indicated timeframes when the BRET readings were captured. Coelenterazine (Promega) was added at a final concentration of 5 μM at least 3 min before measurement. […] Net BRET was determined by subtraction of the vehicle control co-added with 10 μM forskolin.

[5] = 5 minute timepoint, Flp-In-CHO-D2LR
[6] = 5 minute timepoint, dopamine as reference agonist

T1 sequence (P14416 whole entry): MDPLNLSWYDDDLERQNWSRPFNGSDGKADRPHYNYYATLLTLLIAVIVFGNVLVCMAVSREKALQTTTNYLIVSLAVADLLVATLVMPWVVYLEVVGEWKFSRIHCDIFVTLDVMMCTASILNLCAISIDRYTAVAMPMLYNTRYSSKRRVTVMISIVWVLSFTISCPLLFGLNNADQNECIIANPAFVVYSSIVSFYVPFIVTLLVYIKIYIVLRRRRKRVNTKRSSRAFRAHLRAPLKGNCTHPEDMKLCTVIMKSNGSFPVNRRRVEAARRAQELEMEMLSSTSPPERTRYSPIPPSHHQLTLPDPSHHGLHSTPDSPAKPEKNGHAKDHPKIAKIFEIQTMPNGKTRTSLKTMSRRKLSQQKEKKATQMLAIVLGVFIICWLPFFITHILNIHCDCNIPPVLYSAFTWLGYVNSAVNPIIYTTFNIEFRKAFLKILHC
Chain of SNAP-tagged human dopamine D2L (P14416 whole entry): as above

CN1CCN(c2cccc3[nH]c(=O)oc23)CC1 [Pardoprunox, pardoprunox]
pKd (affinity determined from kinetic parameters) [1]: 7.75
koff ([1]; 100 μM GppNHp, 37 °C): 0.038 ± 0.00933 s⁻¹
Log(τ/KA) β-arrestin2 ([2]; ND = no agonist activity detected): 6.80 ± 0.29
ΔLog(τ/KA) β-arrestin2 ([2]; dopamine as reference agonist): 0.47 ± 0.32
pEC50 Gao ([3]; 2 min): 7.78
Emax Gao ([3]; 2 min): 82 ± 4.5
pEC50 Gao ([3]; 5 min): 7.77
Emax Gao ([3]; 5 min): 79 ± 4.3
Log(τ/KA) GαoB activation [3, 5]: 7.70 ± 0.10
ΔLog(τ/KA) GαoB activation [3, 6]: 0.45 ± 0.13
pEC50 Gao ([3]; 10 min): 8.00
Emax Gao ([3]; 10 min): 76 ± 3.2
pEC50 Gao ([3]; 15 min): 8.21
Emax Gao ([3]; 15 min): 81 ± 2.8
pEC50 Gao ([3]; 30 min): 8.70
Emax Gao ([3]; 30 min): 84 ± 3.1
pEC50 Gao ([3]; 45 min): 8.71
Emax Gao ([3]; 45 min): 85 ± 3.1
pEC50 Gao ([3]; 60 min): 8.64
Emax Gao ([3]; 60 min): 86 ± 2.7
pEC50 Gao ([3]; 75 min): 8.34
Emax Gao ([3]; 75 min): 80 ± 4.9
pEC50 Gao ([3]; 90 min): 8.58
Emax Gao ([3]; 90 min): 87 ± 2.5
change in potency over time in the GαoB activation assay ([3]; time points from 2 to 90 min): sixfold
pEC50 cAMP ([4]; 2 min): 8.98
Emax cAMP ([4]; 2 min): 87 ± 1.9
pEC50 cAMP ([4]; 5 min): 8.69
Emax cAMP ([4]; 5 min): 87 ± 1.5
Log(τ/KA) cAMP [4, 5]: 8.64 ± 0.05
ΔLog(τ/KA) cAMP [4, 6]: 0.58 ± 0.07
pEC50 cAMP ([4]; 10 min): 8.39
Emax cAMP ([4]; 10 min): 86 ± 1.4
pEC50 cAMP ([4]; 15 min): 8.33
Emax cAMP ([4]; 15 min): 87 ± 1.6
pEC50 cAMP ([4]; 30 min): 8.46
Emax cAMP ([4]; 30 min): 85 ± 2.1
pEC50 cAMP ([4]; 45 min): 8.03
Emax cAMP ([4]; 45 min): 82 ± 1.4
pEC50 cAMP ([4]; 60 min): 7.82
Emax cAMP ([4]; 60 min): 74 ± 1.8
pEC50 cAMP ([4]; 75 min): 8.04
Emax cAMP ([4]; 75 min): 84 ± 2.2
pEC50 cAMP ([4]; 90 min): 7.83
Emax cAMP ([4]; 90 min): 81 ± 1.6
Inhibition of cAMP production measured using a CAMYEL BRET biosensor, Net BRET ([4]; time 2.21667 mins): 0.09312 and 0.1119 and 0.09462
Inhibition of cAMP production measured using a CAMYEL BRET biosensor, Net BRET ([4]; time 2.58333 mins): 0.09848 and 0.1094 and 0.0984
Inhibition of cAMP production measured using a CAMYEL BRET biosensor, Net BRET ([4]; time 2.95 mins): 0.1044 and 0.1291 and 0.0949
Inhibition of cAMP production measured using a CAMYEL BRET biosensor, Net BRET ([4]; time 3.31667 mins): 0.1072 and 0.1248 and 0.1125
Inhibition of cAMP production measured using a CAMYEL BRET biosensor, Net BRET ([4]; time 3.68333 mins): 0.1144 and 0.1213 and 0.1135
Inhibition of cAMP production measured using a CAMYEL BRET biosensor, Net BRET ([4]; time 4.05 mins): 0.1221 and 0.1382 and 0.1172
Inhibition of cAMP production measured using a CAMYEL BRET biosensor, Net BRET ([4]; time 4.41667 mins): 0.1176 and 0.1369 and 0.114
Inhibition of cAMP production measured using a CAMYEL BRET biosensor, Net BRET ([4]; time 4.78333 mins): 0.1323 and 0.136 and 0.1109
Inhibition of cAMP production measured using a CAMYEL BRET biosensor, Net BRET ([4]; time 5.15 mins): 0.1365 and 0.1389 and 0.1171
Inhibition of cAMP production measured using a CAMYEL BRET biosensor, Net BRET ([4]; time 5.51667 mins): 0.1301 and 0.1395 and 0.116
Inhibition of cAMP production measured using a CAMYEL BRET biosensor, Net BRET ([4]; time 5.88333 mins): 0.1412 and 0.1297 and 0.1213
Inhibition of cAMP production measured using a CAMYEL BRET biosensor, Net BRET ([4]; time 6.25 mins): 0.1339 and 0.1324 and 0.1196
Inhibition of cAMP production measured using a CAMYEL BRET biosensor, Net BRET ([4]; time 6.61667 mins): 0.1245 and 0.1374 and 0.113
Inhibition of cAMP production measured using a CAMYEL BRET biosensor, Net BRET ([4]; time 6.98333 mins): 0.1378 and 0.1302 and 0.1147
Inhibition of cAMP production measured using a CAMYEL BRET biosensor, Net BRET ([4]; time 7.35 mins): 0.1418 and 0.1291 and 0.1123
Inhibition of cAMP production measured using a CAMYEL BRET biosensor, Net BRET ([4]; time 7.71667 mins): 0.1394 and 0.1366 and 0.1233
Inhibition of cAMP production measured using a CAMYEL BRET biosensor, Net BRET ([4]; time 8.08333 mins): 0.1443 and 0.1378 and 0.1166
Inhibition of cAMP production measured using a CAMYEL BRET biosensor, Net BRET ([4]; time 8.45 mins): 0.1408 and 0.1371 and 0.1127
Inhibition of cAMP production measured using a CAMYEL BRET biosensor, Net BRET ([4]; time 8.81667 mins): 0.144 and 0.1435 and 0.1231
Inhibition of cAMP production measured using a CAMYEL BRET biosensor, Net BRET ([4]; time 9.18333 mins): 0.1482 and 0.1437 and 0.1124
Inhibition of cAMP production measured using a CAMYEL BRET biosensor, Net BRET ([4]; time 9.55 mins): 0.1472 and 0.1422 and 0.1225
Inhibition of cAMP production measured using a CAMYEL BRET biosensor, Net BRET ([4]; time 9.91667 mins): 0.1503 and 0.1391 and 0.1248
Inhibition of cAMP production measured using a CAMYEL BRET biosensor, Net BRET ([4]; time 10.2833 mins): 0.1418 and 0.1435 and 0.1207
Inhibition of cAMP production measured using a CAMYEL BRET biosensor, Net BRET ([4]; time 10.65 mins): 0.1434 and 0.1464 and 0.1244
Inhibition of cAMP production measured using a CAMYEL BRET biosensor, Net BRET ([4]; time 11.0167 mins): 0.1459 and 0.1412 and 0.1263
Inhibition of cAMP production measured using a CAMYEL BRET biosensor, Net BRET ([4]; time 11.3833 mins): 0.1508 and 0.1374 and 0.1263
Inhibition of cAMP production measured using a CAMYEL BRET biosensor, Net BRET ([4]; time 11.75 mins): 0.1476 and 0.1469 and 0.1207
Inhibition of cAMP production measured using a CAMYEL BRET biosensor, Net BRET ([4]; time 12.1167 mins): 0.1454 and 0.1457 and 0.1265
Inhibition of cAMP production measured using a CAMYEL BRET biosensor, Net BRET ([4]; time 12.4833 mins): 0.14 and 0.1421 and 0.1315
Inhibition of cAMP production measured using a CAMYEL BRET biosensor, Net BRET ([4]; time 12.85 mins): 0.1413 and 0.1515 and 0.1219
Inhibition of cAMP production measured using a CAMYEL BRET biosensor, Net BRET ([4]; time 13.2167 mins): 0.1418 and 0.1452 and 0.1337
Inhibition of cAMP production measured using a CAMYEL BRET biosensor, Net BRET ([4]; time 13.5833 mins): 0.1514 and 0.1571 and 0.1315
Inhibition of cAMP production measured using a CAMYEL BRET biosensor, Net BRET ([4]; time 13.95 mins): 0.1501 and 0.1517 and 0.1357
Inhibition of cAMP production measured using a CAMYEL BRET biosensor, Net BRET ([4]; time 14.3167 mins): 0.1522
